Data: PMC9072222 (RSC Advances, 2019)

Key:
db/db mice [1] = assay: Hypoglycemic duration test in non-fasted db/db mice; type: in vivo, mouse; conditions: 0.1 mg kg^−1 s.c., n = 8
[2] = species not given; ref not given; cited from earlier work
db/db mice [3] = assay: Chronic 8 week in vivo study in db/db mice; design: species or system mouse; conditions: Liraglutide 0.1 mg kg^−1 s.c., 8 week treatment, blood
db/db mice [4] = assay: Modified multiple IPGTTs in fasted db/db mice; type: in vivo, mouse; conditions: 0.1 mg kg^−1 single dose, IPGTT at 30 hours

In the case of `CCCCCCCCCCCCCCCC(=O)N[C@@H](CCC(=O)NCCCC[C@H](NC(=O)[C@H](C)NC(=O)[C@H](C)NC(=O)[C@H](CCC(N)=O)NC(=O)CNC(=O)[C@H](CCC(=O)O)NC(=O)[C@H](CC(C)C)NC(=O)[C@H](Cc1ccc(O)cc1)NC(=O)[C@H](CO)NC(=O)[C@H](CO)NC(=O)[C@@H](NC(=O)[C@H](CC(=O)O)NC(=O)[C@H](CO)NC(=O)[C@@H](NC(=O)[C@H](Cc1ccccc1)NC(=O)[C@@H](NC(=O)CNC(=O)[C@H](CCC(=O)O)NC(=O)[C@H](C)NC(=O)[C@@H](N)Cc1cnc[nH]1)[C@@H](C)O)[C@@H](C)O)C(C)C)C(=O)N[C@@H](CCC(=O)O)C(=O)N[C@@H](Cc1ccccc1)C(=O)N[C@H](C(=O)N[C@@H](C)C(=O)N[C@@H](Cc1c[nH]c2ccccc12)C(=O)N[C@@H](CC(C)C)C(=O)N[C@H](C(=O)N[C@@H](CCCNC(=N)N)C(=O)NCC(=O)N[C@@H](CCCNC(=N)N)C(=O)NCC(=O)O)C(C)C)[C@@H](C)CC)C(=O)O` [Liraglutide], the “glucose-lowering percentage by AUC0–96 h vs saline” value (db/db mice [1]) is listed as 18.9%, the in vivo half-life [2] is listed as ~8 h and the ALT (db/db mice [3]) is listed as 45.1 ± 5.1 IU L^−1. It also gave a Cholesterol (db/db mice [3]) of 4.1 ± 0.6 mmol/L, an HDL-cholesterol (db/db mice [3]) of 2.6 ± 0.1 mmol/L and an LDL-cholesterol (db/db mice [3]) of 0.8 ± 0.1 mmol/L. For the same compound, the Triglyceride (db/db mice [3]) was 1.1 ± 0.2 mmol/L and the “glucose-lowering effect at 30 hours” value (db/db mice [4]) was “almost ineffective”.
